What follows are molecules tested on P. falciparum HB3 in RBCs, SYBR Green DNA fluorescence (assay: growth inhibition of P. falciparum HB3, dose response, HB3 strain, red blood cells, SYBR Green, cherry-picked (AID 652041);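 note: parasites exposed to compound for 72 hours before the DNA read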).
Molecule `O/N=C/c1cc(Br)ccc1OCc1ccccc1F` has an AC35 of 29.2 µM.
With `CN1CCN(C(=O)c2cc(COc3ccc(F)cc3Cl)on2)CC1c1ccccc1` (centres undefined) the AC35 was 33.5 µM.
Work on `C(=C1c2ccccc2-c2ccccc21)c1ccncc1` yielded an AC35 of 18.2 µM.
With `CCCCC(=O)NC(=S)NNC(=O)CCc1ccccc1` the AC35 was 23 µM.
With `CN(Cc1ccc(Cl)s1)C(=O)CCl` the AC35 was 5.21 µM.
`c1ccc(-c2ccc(SCc3cccnc3)nn2)nc1` gave an AC35 of 35.5 µM.
Molecule `C=CCN(CC=C)C(=S)NC(=O)c1ccc(C)c(Br)c1` has an AC35 of 9.72 µM.
In the case of `CCOC(=O)c1cnc(-n2nc(C)cc2C)nc1NC1CCCC1`, the AC35 is reported as 4.23 µM.
For `CC12CC3(C)CC(C)(C1)CC(NC(=O)N1CCCC1)(C2)C3`, the AC35 was 14.9 µM.
Molecule `Cc1c(Cc2ccccc2)c(NCCN(C)C)n2c(nc3ccccc32)c1C#N` has an AC35 of 6.66 µM.
`COc1ccc2oc(=O)c(-c3csc(Nc4cccc(O)c4)n3)cc2c1` showed an AC35 of 12 µM.
In the case of `O=P(Nc1cccnc1)(Oc1ccccc1Cl)Oc1ccccc1Cl`, the AC35 is reported as 37.1 µM.
`O=C(O)c1ccccc1NC(c1ccccc1)c1ccc2cccnc2c1O` (centres undefined) showed an AC35 of 6.46 µM.
In the case of `O=C(c1ccc(Cl)cc1)N1CCN(c2ccc(F)cc2)CC1`, the AC35 is reported as 35.2 µM.
With `CCCc1cc(C(N)=O)c(NC(=O)c2cc(C)on2)s1` the AC35 was 39.7 µM.
`CCOC(=O)c1ccc(NC(=S)N(Cc2cccnc2)Cc2ccco2)cc1` gave an AC35 of 28.1 µM.
With `CC1(C(=O)OCC(=O)Nc2ccc3ccccc3c2)CC1(Cl)Cl` (centres undefined) the AC35 was 31.2 µM.
Work on `O=C1c2cc(F)ccc2-n2c1nc1ccccc1c2=O` yielded an AC35 of 0.0251 µM.
`O=C1OCC(CO)(CO)N=C1NNc1ccc(Cl)c(Cl)c1` gave an AC35 of 19.7 µM.
With `O/N=C(\c1ccc(Cl)cc1Cl)c1ncc(C(F)(F)F)cc1Cl` the AC35 was 11.6 µM.
`CC(C)N1CCN(c2ccc(OC[C@H]3CO[C@](Cn4cncn4)(c4ccc(Cl)cc4Cl)O3)cc2)CC1` was tested, and the AC35 was 7.37 µM.
Molecule `c1ccc(CSc2ccc(-c3ccccn3)nn2)nc1` has an AC35 of 23 µM.
`O=C(Nc1ccc(Cl)cc1C(=O)Nc1ccc(Br)cn1)c1ccco1` was tested, and the AC35 was 16.5 µM.
`O=C(CCCSc1ccccc1)Nc1nc(-c2ccccn2)cs1` was tested, and the AC35 was 8.91 µM.
`Cc1oc2c(c1C(=O)c1ccccc1)C(=O)C(=O)c1ccccc1-2` was tested, and the AC35 was 3.48 µM.
`CC(=O)C1=C(c2ccc(Br)cc2)C(=O)c2ccccc2C1=O` showed an AC35 of 0.472 µM.
In the case of `CCCCNC(=S)N/N=C1\CCCCc2ccccc21`, the AC35 is reported as 16.8 µM.
In the case of `CNc1ccc2oc(C[C@H]3O[C@@]4(CC[C@H]3C)O[C@H]([C@H](C)C(=O)c3ccc[nH]3)[C@H](C)C[C@H]4C)nc2c1C(=O)O`, the AC35 is reported as 0.833 µM.
Molecule `CCCCNc1c(-c2ccc(-c3ccc(OC)cc3)c(OC)c2)nc2ccccn12` has an AC35 of 4.29 µM.
Work on `O=c1cc(CSc2ccc(Cl)cc2)nc(-c2ccccn2)[nH]1` yielded an AC35 of 2.3 µM.
In the case of `O=[N+]([O-])c1cc(C(F)(F)F)ccc1NCCc1c[nH]c2ccc(O)cc12`, the AC35 is reported as 24.6 µM.
Molecule `O=c1c2ccccc2nc(-c2ccc(-c3ccccc3)cc2)n1-c1ccncc1` has an AC35 of 18.3 µM.
In the case of `CC1=CC(=O)C=C(C)C1=NOS(=O)(=O)c1ccccc1`, the AC35 is reported as 5.53 µM.
With `Cc1cc(C(=O)COC(=O)Cc2n[nH]c(=O)c3ccccc23)c(C)n1-c1cccc(C(F)(F)F)c1` the AC35 was 4.22 µM.
With `CC1CCc2c(C(=O)Nc3ccccn3)csc2C1` (centres undefined) the AC35 was 35.6 µM.
With `Cc1nc(SCc2ccc(OCCC(C)C)cc2)n[nH]1` the AC35 was 13.1 µM.
`CCCS(=O)(=O)c1c(S(=O)(=O)CCC)c2c(C)cccn2c1C(=O)N/N=C/c1cc(O)cc(O)c1` showed an AC35 of 10.5 µM.
With `O=C(Nc1ccc(Br)c(C(F)(F)F)c1)c1ccccc1` the AC35 was 10.7 µM.
`O=[N+]([O-])c1ccc(Sc2cccc[n+]2[O-])c2nonc12` was tested, and the AC35 was 1.41 µM.
Work on `O=c1c(O)c(-c2ccccc2)oc2ccccc12` yielded an AC35 of 21.6 µM.
Molecule `CC(C)(C)n1nc(Cc2cccc3ccccc23)c2c(N)ncnc21` has an AC35 of 23.6 µM.
`COc1cc2cnc(-c3ccccc3)c(C(=O)c3ccc(F)cc3)c2cc1OC` gave an AC35 of 21.6 µM.
`CCC1=NN(C(=O)c2cccc(Br)c2)C(O)(c2ccc(Br)cc2)C1` (centres undefined) gave an AC35 of 12.3 µM.
For `O=c1c(CO)cc(CO)cc(CO)c1O`, the AC35 was 20.8 µM.
`O=C(Oc1c(Cl)cc(Cl)c2cccnc12)c1cccs1` was tested, and the AC35 was 19 µM.
With `CCC(C)n1ncn(-c2ccc(N3CCN(c4ccc(OCC5COC(Cn6cncn6)(c6ccc(Cl)cc6Cl)O5)cc4)CC3)cc2)c1=O` (centres undefined) the AC35 was 3.81 µM.
`Cn1nc(C(F)(F)F)c(C#N)c1N1CCN(c2ccc(F)cc2)CC1` was tested, and the AC35 was 18.7 µM.
For `O=c1c2ccccc2nc(-c2cccc(Cl)c2)n1O`, the AC35 was 28.2 µM.
Work on `CCN1C(=O)C(CC(=O)Nc2ccccc2Cl)N(NC(=O)c2cccc(F)c2)C1=S` (centres undefined) yielded an AC35 of 21.8 µM.
`COc1cnc(-c2ccccn2)nc1Sc1ccc(C)cc1` gave an AC35 of 3.64 µM.
In the case of `Clc1ccccc1C(c1ccccc1)(c1ccccc1)n1ccnc1`, the AC35 is reported as 0.645 µM.
In the case of `CC1CCN(c2nc(-c3ccncc3)nc3ccccc23)CC1`, the AC35 is reported as 8.17 µM.
For `Cc1ccc(Cl)cc1NC1=C/C(=N\S(=O)(=O)c2cccs2)c2ccccc2C1=O`, the AC35 was 0.119 µM.
Work on `CCC(Oc1ccc(Br)cc1Cl)C(=O)Nc1nnc(C2CC2)s1` (centres undefined) yielded an AC35 of 33.3 µM.
Work on `O=C(c1ccccc1)c1ccc(Cn2cc(-c3ccccc3)nn2)cc1` yielded an AC35 of 40.3 µM.
`CC1(C)C=Cc2c(ccc3c2OC[C@@H](c2ccc(O)cc2O)C3)O1` showed an AC35 of 13.8 µM.
`O=C(Nc1nnc(-c2cccs2)o1)c1cccc(Oc2ccccc2)c1` showed an AC35 of 19.4 µM.
`Cc1cc(C)c(C(=O)CC(=O)c2cccnc2)c(C)c1` was tested, and the AC35 was 8.29 µM.
For `CCc1ccc(S(=O)(=O)N(C(=O)c2ccncc2)c2ccc(OC(=O)c3ccncc3)cc2)cc1`, the AC35 was 41.7 µM.
